Experimental data as given in paper PMC4184702 (Pharmacology Research & Perspectives, 2014).
“Also recorded” adds a separate entry of the source. Where two headings read alike, the source gives them in different places.

Key:
α4β2* nAChR = details: Figure 1, cited from earlier work
α7* nAChR = details: Figure 1, cited from earlier work
α3β4* nAChR = target: α3β4* nAChR; set-up: method as in Mineur et al. ([2009]); details: Figure 1; ref Mineur et al. ([2009]); cited from earlier work
LS and HS α4β2-nAChR = test system: LS and HS α4β2-nAChR; set-up: method as in Mineur et al. [2009]; details: relative to that of ACh; ref Mineur et al. [2009]; cited from earlier work
C57BL/6J mice = details: ref Mineur et al. [2009], cited from earlier work; for latency to eat in NSF: 14 days repeat treatment, C57BL/6J mice, [2011]
Male C57 BL6 mice = experiment: SmartCube test; format: in vivo, mouse; details: for SmartCube behavioral signature: both tested doses, 15 min preinjection
Method: Male C57 BL6 mice (Taconic Farms) were used in the SmartCube® assay (PsychoGenics Inc., Tarrytown, NY). Mice were received at 7 weeks old and group-housed in OptiMICE ventilated cages with four mice/cage. Mice were acclimated to the colony room for at least 1 week prior to the first injections. All animals were tested in SmartCube® at 8 10 weeks old.
To acquire initial in vivo evaluation of our nicotinic ligands for behavioral effects relevant to psychiatric diseases, we used SmartCube®, an automated system in which mouse behavior is captured by digital video using novel, proprietary hardware that presents multiple challenges in a single test session and is analyzed with computer algorithms. Digital videos of the subjects are processed with computer vision algorithms to extract more than 1400 dependent measures including frequency and duration of behavioral states such as grooming, rearing, etc., and many other features obtained during the test session. Using machine learning techniques chosen to best separate pharmacological effects of reference compounds, the behavioral signatures of the mutant mice are then assessed quantitatively.
The most dominant of the features collected that define the drug class signature are identified and ranked using complex proprietary bioinformatics algorithms. The outcome of a SmartCube® run is a set of more than 1400 features (behavioral parameters) that can be used for various analyses. Many of these features are correlated (e.g., rearing counts and supported rearing counts). Therefore, we form statistically independent combinations of the original features (further referred to as decorrelated features) that discriminate between the groups more effectively. Next, we apply a proprietary feature ranking algorithm to score each feature discrimination power to weight each feature change by its relevance. The data obtained in this way are used to define drug signatures for known reference compounds and to establish therapeutic class signatures against which a test sample can be compared. The neuropharmacological effects of a test compound can be predicted by similarity to major classes of compounds, such as antipsychotics, anxiolytics, and antidepressants (Roberds et al. [2011]).
Mice are taken in their home cage to the SmartCube® suite of experimental rooms where they remain until they are placed in the apparatus for a single testing session. A standard SmartCube® protocol runs for a single session (∼45 min). After the session mice are group-housed again and brought back to the colony room. Any abnormal behavior is noted. […] At least 12 mice were used in each treatment group.

α3β4 nAChR = details: Figure 1, cited from earlier work
α4β2 nAChR = details: Figure 1, cited from earlier work
mice = details: ref Mineur et al. [2009]; cited from earlier work
human α3β4*-nAChR = target: T1, human α3β4*-nAChR (Homo sapiens, UniProt P30926+P32297); experiment: 86Rb+ ion efflux assay, SH-SY5Y cells; format: cell-based; details: 86Rb+ efflux
T1 construct: SH-SY5Y naturally expresses autonomic α3β4*-nAChRs; endogenous in cells; host or cells: SH-SY5Y human neuroblastoma cells
T1 sequence (P32297 32-505): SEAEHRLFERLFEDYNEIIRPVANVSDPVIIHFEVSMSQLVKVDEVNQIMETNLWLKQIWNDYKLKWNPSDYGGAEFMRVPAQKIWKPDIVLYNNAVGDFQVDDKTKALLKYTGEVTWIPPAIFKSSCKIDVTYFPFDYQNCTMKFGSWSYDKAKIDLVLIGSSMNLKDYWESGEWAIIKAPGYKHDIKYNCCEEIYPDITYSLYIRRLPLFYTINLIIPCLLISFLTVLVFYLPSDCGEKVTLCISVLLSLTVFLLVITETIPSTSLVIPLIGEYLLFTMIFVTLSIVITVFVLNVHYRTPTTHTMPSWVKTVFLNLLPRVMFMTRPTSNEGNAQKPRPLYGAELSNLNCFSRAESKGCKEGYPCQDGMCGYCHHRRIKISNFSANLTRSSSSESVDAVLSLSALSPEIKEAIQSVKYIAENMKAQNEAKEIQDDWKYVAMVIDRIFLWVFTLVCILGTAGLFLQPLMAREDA
T1 sequence (P30926 22-498): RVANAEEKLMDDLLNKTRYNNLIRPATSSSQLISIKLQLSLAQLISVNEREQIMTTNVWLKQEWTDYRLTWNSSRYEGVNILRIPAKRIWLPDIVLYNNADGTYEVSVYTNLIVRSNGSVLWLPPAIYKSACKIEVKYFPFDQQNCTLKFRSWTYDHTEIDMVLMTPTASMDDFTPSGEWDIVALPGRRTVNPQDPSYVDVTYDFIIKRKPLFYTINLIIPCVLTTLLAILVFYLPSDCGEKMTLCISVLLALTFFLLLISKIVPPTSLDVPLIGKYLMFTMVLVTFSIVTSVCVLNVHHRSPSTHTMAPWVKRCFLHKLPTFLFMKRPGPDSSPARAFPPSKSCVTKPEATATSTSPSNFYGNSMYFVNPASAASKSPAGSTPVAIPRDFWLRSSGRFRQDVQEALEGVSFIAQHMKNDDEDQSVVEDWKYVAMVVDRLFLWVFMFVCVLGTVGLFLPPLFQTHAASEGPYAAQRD
Excerpt: (§1) Cell lines naturally or heterologously expressing specific, functional, human nAChR subtypes were used. The human clonal cell line TE671/RD naturally expresses human muscle-type α1*-nAChRs, containing α1, β1, γ, and δ subunits, with function detectable using ^86Rb^+ efflux assays. […] These cells heterologously express human nAChR chimeric (α6/3) subunits (wherein the extracellular, N-terminal, ligand-binding domain of the human nAChR α6 subunit replaces that domain in the nAChR α3 subunit) along with human β2 and β3 subunits. […] Cells were passaged once a week by splitting just-confluent cultures 1/300 (TE671/RD), 1/10 (SH-SY5Y), or 1/40 (transfected SH-EP1) in serum-supplemented medium to maintain log-phase growth.
(§2) One newer modification on these techniques involves low temperature incubation before assays to increase the surface expression of high sensitivity (HS) relative to low sensitivity (LS) α4β2 nAChRs and to enhance surface expression of (α6/3)β2β3-nAChRs. […] In brief, this allows us to determine efficacies of test compounds at LS and HS α4β2 nAChRs, respectively, as the ordinate values of the linear regressions at abscissa values of 0% and 100% of sazetidine-A efficacy.
(§3) Results are normalized to responses to a fully efficacious concentration of carbamylcholine (see Materials and Methods for details). […]

[1] = test system: BALB/cJ and C57BL/6J mice; details: 28 days oral administration; ref Vieyra-Reyes et al. [2008]; cited from earlier work
[2] = test system: male 129SvJ;C57BL/6J F1 hybrid mice; set-up: method as in Turner et al. ([2010]); details: chronic treatment; ref Turner et al. ([2010]); cited from earlier work
human α4β2-nAChR = target: T2, human α4β2-nAChR (Homo sapiens, UniProt P17787+P43681); experiment: 86Rb+ ion efflux assay, SH-EP1-hα4β2 cells; format: cell-based; details: normalized to a full antagonist
T2 construct: expressed in transfected cells; host or cells: SH-EP1 human epithelial cells (SH-EP1-hα4β2)
T2 sequence (P43681 29-627 limits assumed): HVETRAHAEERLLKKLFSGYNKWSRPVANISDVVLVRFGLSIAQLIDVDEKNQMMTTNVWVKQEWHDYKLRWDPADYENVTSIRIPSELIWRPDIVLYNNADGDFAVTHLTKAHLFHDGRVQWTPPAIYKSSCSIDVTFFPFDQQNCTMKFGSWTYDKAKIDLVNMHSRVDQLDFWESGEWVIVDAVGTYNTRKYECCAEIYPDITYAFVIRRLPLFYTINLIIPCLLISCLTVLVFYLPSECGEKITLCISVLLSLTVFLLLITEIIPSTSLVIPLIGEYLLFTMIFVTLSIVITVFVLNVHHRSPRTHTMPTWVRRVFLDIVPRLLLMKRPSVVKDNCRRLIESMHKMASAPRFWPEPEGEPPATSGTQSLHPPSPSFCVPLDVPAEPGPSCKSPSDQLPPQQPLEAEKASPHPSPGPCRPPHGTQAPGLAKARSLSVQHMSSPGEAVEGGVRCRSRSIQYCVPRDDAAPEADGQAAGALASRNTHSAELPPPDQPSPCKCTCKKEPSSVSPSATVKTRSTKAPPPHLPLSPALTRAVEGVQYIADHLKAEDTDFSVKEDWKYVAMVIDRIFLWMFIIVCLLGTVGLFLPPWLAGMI
T2 sequence (P17787 26-502): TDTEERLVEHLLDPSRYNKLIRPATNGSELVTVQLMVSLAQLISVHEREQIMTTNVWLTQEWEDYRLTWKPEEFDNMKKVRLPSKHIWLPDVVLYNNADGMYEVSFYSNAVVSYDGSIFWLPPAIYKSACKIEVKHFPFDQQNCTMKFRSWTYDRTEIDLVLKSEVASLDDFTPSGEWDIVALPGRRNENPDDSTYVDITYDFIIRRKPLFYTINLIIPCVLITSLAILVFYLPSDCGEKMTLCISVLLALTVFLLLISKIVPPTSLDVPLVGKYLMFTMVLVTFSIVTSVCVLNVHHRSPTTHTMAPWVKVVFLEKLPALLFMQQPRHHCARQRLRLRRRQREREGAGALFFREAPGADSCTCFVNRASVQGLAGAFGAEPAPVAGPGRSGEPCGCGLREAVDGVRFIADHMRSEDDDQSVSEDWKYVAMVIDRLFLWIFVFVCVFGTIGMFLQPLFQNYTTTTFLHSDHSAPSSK
Excerpt: as §1, §2, §3

[3] = target: T3, HS (high sensitivity) α4β2-nAChRs (Homo sapiens, UniProt P17787+P43681); experiment: 86Rb+ ion efflux assay, HS α4β2 efficacy by regression on sazetidine-A efficacy; format: cell-based; details: relative to carbamylcholine
T3 construct: expressed in transfected cells; host or cells: SH-EP1 human epithelial cells (SH-EP1-hα4β2)
T3 sequence (P43681 29-627 limits assumed): as the sequence (P43681 29-627 limits assumed) above
T3 sequence (P17787 26-502): as the sequence (P17787 26-502) above
Excerpt: as §1, §2, §3

[4] = target: T4, LS (low sensitivity) α4β2-nAChRs (Homo sapiens, UniProt P17787+P43681); experiment: 86Rb+ ion efflux assay, LS α4β2 efficacy by regression on sazetidine-A efficacy; format: cell-based; details: relative to carbamylcholine
T4 construct: expressed in transfected cells; host or cells: SH-EP1 human epithelial cells (SH-EP1-hα4β2)
T4 sequence (P43681 29-627 limits assumed): as the sequence (P43681 29-627 limits assumed) above
T4 sequence (P17787 26-502): as the sequence (P17787 26-502) above
Excerpt: as §1, §2, §3

human (α6/3)β2β3-nAChR = target: T5, human (α6/3)β2β3-nAChR (Homo sapiens, UniProt P17787+P32297+Q15825); experiment: 86Rb+ ion efflux assay, SH-EP1-h(α6/3)β2β3 cells; format: cell-based
T5 construct: expressed in transfected cells; host or cells: SH-EP1 human epithelial cells (SH-EP1-h(α6/3)β2β3)
T5 sequence (Q15825+P32297 fused with the stated changes): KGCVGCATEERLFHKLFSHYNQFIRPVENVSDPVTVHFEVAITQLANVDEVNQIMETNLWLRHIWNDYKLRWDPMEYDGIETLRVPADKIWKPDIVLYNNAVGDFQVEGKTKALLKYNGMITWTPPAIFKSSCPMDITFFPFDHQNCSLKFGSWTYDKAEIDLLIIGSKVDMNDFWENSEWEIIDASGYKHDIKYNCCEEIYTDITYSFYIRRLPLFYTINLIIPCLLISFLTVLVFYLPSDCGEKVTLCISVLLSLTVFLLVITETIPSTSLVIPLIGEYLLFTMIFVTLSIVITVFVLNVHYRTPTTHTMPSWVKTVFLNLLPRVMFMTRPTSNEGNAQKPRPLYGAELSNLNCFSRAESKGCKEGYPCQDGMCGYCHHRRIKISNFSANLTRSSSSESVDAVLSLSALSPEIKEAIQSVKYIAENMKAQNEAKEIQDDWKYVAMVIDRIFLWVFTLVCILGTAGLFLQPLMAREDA
T5 sequence (P17787 26-502): as the sequence (P17787 26-502) above
T5 sequence (Q05901 25-458 partner limits assumed): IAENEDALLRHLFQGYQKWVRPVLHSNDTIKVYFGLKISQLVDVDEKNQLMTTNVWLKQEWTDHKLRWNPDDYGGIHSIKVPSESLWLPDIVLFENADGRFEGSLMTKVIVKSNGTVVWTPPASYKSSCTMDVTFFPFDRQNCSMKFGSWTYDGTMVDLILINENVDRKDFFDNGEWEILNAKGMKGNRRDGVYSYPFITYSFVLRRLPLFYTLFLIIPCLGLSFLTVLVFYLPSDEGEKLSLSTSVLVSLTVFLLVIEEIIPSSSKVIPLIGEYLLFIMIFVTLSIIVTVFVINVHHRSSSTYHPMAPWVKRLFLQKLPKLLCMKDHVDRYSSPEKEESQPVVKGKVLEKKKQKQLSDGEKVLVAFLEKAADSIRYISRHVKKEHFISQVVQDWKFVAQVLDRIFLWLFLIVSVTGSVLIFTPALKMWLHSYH
Excerpt: as §1, §2
Results are normalized to responses to a fully efficacious concentration of carbamylcholine (see Materials and Methods for details). […] The ordinate intercepts of the linear regressions at a sazetidine-A efficacy (abscissa) of 0% represent the efficacies at LS α4β2-nAChRs, while the ordinate intercepts at a sazetidine-A efficacy of 100% represent the efficacies at HS α4β2-nAChRs.

α4β4 nAChR = details: ref Rollema et al. [2010]; cited from earlier work
α7 nAChR = details: ref Rollema et al. [2010]; read-out: Ki α7; cited from earlier work
α4β2*-nAChR = test system: α4β2*-nAChR; set-up: method as in Weber et al. [2013]; details: estimate at free concentration in brain; ref Weber et al. [2013]; cited from earlier work

For `O=c1c(-c2ccccn2)ccc2n1CC1CNCC2C1` (stereo not shown) [3-(2-pyridyl)cytisine], the Ki (α4β2* nAChR; ref Mineur et al. ([2009])) is given as 0.91 nM, the Ki (α7* nAChR; ref Mineur et al. ([2009])) is given as 1100 nM and the Ki (α3β4* nAChR) is given as 119 nM. The “intrinsic efficacy at both LS and HS receptors” value (LS and HS α4β2-nAChR) was “no more than 10%”, the “latency to eat in NSF” value (C57BL/6J mice) was “decreased the latency to eat” and the “dose found effective in the NSF test” value (C57BL/6J mice; lower dose only (0.3 vs. 0.6 mg/kg)) was 0.3 mg/kg.
For `O=c1cccc2n1C[C@@H]1CNC[C@H]2C1` [(-)-cytisine], the “SmartCube antidepressant (green) component” value (Male C57 BL6 mice; 1.0 mg/kg, i.p.) was “potential antidepressive-like behavior; also recorded: most pronounced”, the SmartCube side effects (Male C57 BL6 mice; 0.5 and 1.0 mg/kg, i.p.) was “Minimal side effects; also recorded: no obvious side effects” and the SmartCube behavioral signature (Male C57 BL6 mice; i.p.) was “robust CNS drug-like signatures”. The Ki (α3β4 nAChR; ref Rollema et al. ([2010])) was 480 nM, the Ki (α4β2 nAChR; ref Rollema et al. ([2010])) was 2 nM and the Ki (α7* nAChR; ref Rollema et al. ([2010])) was 5890 nM. For the same molecule, the “intrinsic efficacy at both LS and HS receptors” value (LS and HS α4β2-nAChR) was “no more than 10%”, the “latency to eat in NSF” value (C57BL/6J mice) was “decreased the latency to eat” and the “dose not tolerated by mice” value (mice) was over 1.5 mg/kg.
For `FC(F)(F)c1ccc2c(c1)[C@H]1CNC[C@@H]2C1` [CP-601927], the Ki (α3β4 nAChR; ref Mineur et al. ([2011])) is given as 102 nM, the Ki (α4β2 nAChR; ref Mineur et al. ([2011])) is given as 1.2 nM and the “latency to eat in NSF” value (C57BL/6J mice) is given as “increased the latency to eat”.
For `CN1CCC[C@H]1c1cccnc1` [Nicotine], the “Agonism α3β4*-nAChR Efficacy” value (human α3β4*-nAChR) is listed as 90% and the “behavioral changes in NSF” value [1] is listed as “failed to show significant behavioral changes”.
For `OCCCCC#Cc1cncc(OC[C@@H]2CCN2)c1` [Sazetidine-A], the Ki (α3β4 nAChR; ref Xiao et al. ([2006])) is listed as 10000 nM, the Ki (α4β2 nAChR; ref Xiao et al. ([2006])) is listed as 0.4 nM and the Ki (α4β2* nAChR; ref Xiao et al. ([2006])) is listed as 0.9 nM. For the same molecule, the “time needed to approach food, NIH paradigm” value [2] was “decreased the time needed to approach food”.
In the case of `c1cnc2cc3c(cc2n1)[C@@H]1CNC[C@H]3C1` [Varenicline], the “Inactivation α4β2-nAChR Efficacy” value (human α4β2-nAChR) is reported as 79 ± 3.3%, the “Agonism α4β2-nAChR HS Efficacy” value [3] is reported as 105 ± 4.4% and the “Agonism α4β2-nAChR LS Efficacy” value [4] is reported as 34 ± 2.8%. For the same molecule, the EC50 (human (α6/3)β2β3-nAChR; 86Rb+ efflux, read-out: Agonism (α6/3)β2β3-nAChR pEC50 (converted)) was 17.8 nM, the “Agonism (α6/3)β2β3-nAChR Efficacy” value (human (α6/3)β2β3-nAChR; normalized to a full agonist) was 17 ± 0.5 and the “Inactivation (α6/3)β2β3-nAChR Efficacy” value (human (α6/3)β2β3-nAChR; normalized to a full antagonist) was 74 ± 2.6%. The “Agonism α3β4*-nAChR Efficacy” value (human α3β4*-nAChR) was 110%, the SmartCube antidepressant effects (Male C57 BL6 mice; 1 mg/kg) was “weak antidepressant effects” and the SmartCube side effects (Male C57 BL6 mice; 1.0 mg/kg, i.p.) was “Minimal side effects”. For the same molecule, the “SmartCube side effect component, probability” value (Male C57 BL6 mice; 3.0 mg/kg, i.p.) was “about 30%”, the SmartCube behavioral signature (Male C57 BL6 mice; i.p.) was “robust CNS drug-like signatures” and the Ki (α4β4 nAChR) was 110 nM. The Ki (α7 nAChR) was 125 nM, the “latency to eat in NSF” value (C57BL/6J mice) was “did not show any effect” and the “time needed to approach food, NIH paradigm” value [2] was “no effect”.
For `CNC1(C)C2CCC(C2)C1(C)C` (stereo not shown) [mecamylamine], the “block of α4β2*-nAChR function” value (α4β2*-nAChR) is listed as about 20%.
